Data reported in ChEMBL document CHEMBL3616412, “Re-engineering nalidixic acid's chemical scaffold: A step towards the development of novel anti-tubercular and anti-bacterial leads for resistant pathogens” (2015).
≈ marks a conversion by molar mass, not a printed value.

Legend:
Staphylococcus aureus [1] = test: Antibacterial activity against Staphylococcus aureus at 10 ug/disk after 24 hrs by agar plate disk diffusion method; type: functional; settings: read-out: DIZ
Escherichia coli [2] = test: Antibacterial activity against Escherichia coli at 10 ug/disk after 24 hrs by agar plate disk diffusion method; type: functional; settings: read-out: DIZ
Proteus vulgaris [3] = test: Antibacterial activity against Proteus vulgaris at 10 ug/disk after 24 hrs by agar plate disk diffusion method; type: functional; settings: read-out: DIZ
Pseudomonas aeruginosa [4] = test: Antibacterial activity against Pseudomonas aeruginosa at 10 ug/disk after 24 hrs by agar plate disk diffusion method; type: functional; settings: read-out: DIZ
Salmonella typhi [5] = test: Antibacterial activity against Salmonella typhi at 10 ug/disk after 24 hrs by agar plate disk diffusion method; type: functional, Salmonella enterica subsp. enterica serovar Typhi; settings: Salmonella enterica, read-out: DIZ
Salmonella paratyphi [6] = test: Antibacterial activity against Salmonella paratyphi at 10 ug/disk after 24 hrs by agar plate disk diffusion method; type: functional, Salmonella enterica subsp. enterica serovar Paratyphi A; settings: Salmonella enterica, read-out: DIZ
[7] = tested on: Mycobacterium tuberculosis; test: Antitubercular activity against Mycobacterium tuberculosis H37Rv ATCC 27294 after 5 days by micro alamar blue assay; type: functional
Staphylococcus aureus [8] = test: Antibacterial activity against Staphylococcus aureus after 24 hrs by agar dilution method; type: functional
Staphylococcus aureus [9] = test: Antibacterial activity against Staphylococcus aureus after 5 days by microdilution method; type: functional; settings: 120 h
Escherichia coli [10] = test: Antibacterial activity against Escherichia coli after 24 hrs by agar dilution method; type: functional
Escherichia coli [11] = test: Antibacterial activity against Escherichia coli after 5 days by microdilution method; type: functional; settings: 120 h
Proteus vulgaris [12] = test: Antibacterial activity against Proteus vulgaris after 24 hrs by agar dilution method; type: functional
Proteus vulgaris [13] = test: Antibacterial activity against Proteus vulgaris after 5 days by microdilution method; type: functional; settings: 120 h
Pseudomonas aeruginosa [14] = test: Antibacterial activity against Pseudomonas aeruginosa after 24 hrs by agar dilution method; type: functional
Pseudomonas aeruginosa [15] = test: Antibacterial activity against Pseudomonas aeruginosa after 5 days by microdilution method; type: functional; settings: 120 h
Salmonella typhi [16] = test: Antibacterial activity against Salmonella typhi after 24 hrs by agar dilution method; type: functional, Salmonella enterica subsp. enterica serovar Typhi; settings: Salmonella enterica
Salmonella typhi [17] = test: Antibacterial activity against Salmonella typhi after 5 days by microdilution method; type: functional, Salmonella enterica subsp. enterica serovar Typhi; settings: Salmonella enterica, 120 h
Salmonella paratyphi [18] = test: Antibacterial activity against Salmonella paratyphi after 24 hrs by agar dilution method; type: functional, Salmonella enterica subsp. enterica serovar Paratyphi A; settings: Salmonella enterica
Salmonella paratyphi [19] = test: Antibacterial activity against Salmonella paratyphi after 5 days by microdilution method; type: functional, Salmonella enterica subsp. enterica serovar Paratyphi A; settings: Salmonella enterica, 120 h

Compound	zone of inhibition at 10 µg/disc (Staphylococcus aureus [1]) [mm]	zone of inhibition at 10 µg/disc (Escherichia coli [2]) [mm]	zone of inhibition at 10 µg/disc (Proteus vulgaris [3]) [mm]	zone of inhibition at 10 µg/disc (Pseudomonas aeruginosa [4]) [mm]	zone of inhibition at 10 µg/disc (Salmonella typhi [5]) [mm]	zone of inhibition at 10 µg/disc (Salmonella paratyphi [6]) [mm]	inhibition (INH) [7] [%]	MIC (Staphylococcus aureus [8]) [µg/mL]	MIC (Staphylococcus aureus [9]) [µg/mL]	MIC (Escherichia coli [10]) [µg/mL]	MIC (Escherichia coli [11]) [µg/mL]	MIC (Proteus vulgaris [12]) [µg/mL]	MIC (Proteus vulgaris [13]) [µg/mL]	MIC (Pseudomonas aeruginosa [14]) [µg/mL]	MIC (Pseudomonas aeruginosa [15]) [µg/mL]	MIC (Salmonella typhi [16]) [µg/mL]	MIC (Salmonella typhi [17]) [µg/mL]	MIC (Salmonella paratyphi [18]) [µg/mL]	MIC (Salmonella paratyphi [19]) [µg/mL]
CCOC(=O)c1cn(CC)c2nc(C)ccc2c1=O	24	22	23	17	21	19	78	0.25 (≈ 0.96 µM)	0.25 (≈ 0.96 µM)	0.5 (≈ 1.92 µM)	0.5 (≈ 1.92 µM)	0.5 (≈ 1.92 µM)	0.5 (≈ 1.92 µM)	2 (≈ 7.68 µM)	2 (≈ 7.68 µM)	1 (≈ 3.84 µM)	1 (≈ 3.84 µM)	1 (≈ 3.84 µM)	1 (≈ 3.84 µM)
CCn1cc(C(=O)NNC(N)=S)c(=O)c2ccc(C)nc21	28	29	30	26	23	23	84	0.12 (≈ 0.393 µM)	0.12 (≈ 0.393 µM)	0.12 (≈ 0.393 µM)	0.12 (≈ 0.393 µM)	0.12 (≈ 0.393 µM)	0.12 (≈ 0.393 µM)	0.25 (≈ 0.819 µM)	0.25 (≈ 0.819 µM)	0.5 (≈ 1.64 µM)	0.5 (≈ 1.64 µM)	0.5 (≈ 1.64 µM)	0.5 (≈ 1.64 µM)
CCn1cc(C(=O)NN)c(=O)c2ccc(C)nc21	28	39	34	39	28	20	80	0.12 (≈ 0.487 µM)	0.12 (≈ 0.487 µM)	0.06 (≈ 0.244 µM)	0.06 (≈ 0.244 µM)	0.06 (≈ 0.244 µM)	0.06 (≈ 0.244 µM)	0.25 (≈ 1.02 µM)	0.25 (≈ 1.02 µM)	0.5 (≈ 2.03 µM)	0.5 (≈ 2.03 µM)	0.5 (≈ 2.03 µM)	0.5 (≈ 2.03 µM)
CCn1cc(C(=O)NNC(=S)/N=c2\[nH]c3ccccc3[nH]c2=O)c(=O)c2ccc(C)nc21	20	19	18	19	22	18	93	1 (≈ 2.22 µM)	1 (≈ 2.22 µM)	2 (≈ 4.45 µM)	2 (≈ 4.45 µM)	2 (≈ 4.45 µM)	2 (≈ 4.45 µM)	> 4	> 4	2 (≈ 4.45 µM)	2 (≈ 4.45 µM)	2 (≈ 4.45 µM)	2 (≈ 4.45 µM)
CCn1cc(C(=O)N/N=c2\[nH]c3ccccc3[nH]c2=O)c(=O)c2ccc(C)nc21	21	22	20	17	14	15	91	1 (≈ 2.56 µM)	1 (≈ 2.56 µM)	2 (≈ 5.12 µM)	2 (≈ 5.12 µM)	2 (≈ 5.12 µM)	2 (≈ 5.12 µM)	> 4	> 4	> 4	> 4	> 4	> 4
CCn1cc(-c2n[nH]c(=S)n2-c2nc3ccccc3[nH]c2=O)c(=O)c2ccc(C)nc21	30	28	30	29	22	23	77	0.06 (≈ 0.139 µM)	0.06 (≈ 0.139 µM)	0.06 (≈ 0.139 µM)	0.06 (≈ 0.139 µM)	0.5 (≈ 1.16 µM)	0.5 (≈ 1.16 µM)	1 (≈ 2.32 µM)	1 (≈ 2.32 µM)	1 (≈ 2.32 µM)	1 (≈ 2.32 µM)	1 (≈ 2.32 µM)	1 (≈ 2.32 µM)
CCn1cc(-c2nn(-c3nc4ccccc4[nH]c3=O)c(=S)o2)c(=O)c2ccc(C)nc21	32	25	26	23	23	22	75	0.06 (≈ 0.139 µM)	0.06 (≈ 0.139 µM)	0.5 (≈ 1.16 µM)	0.5 (≈ 1.16 µM)	1 (≈ 2.31 µM)	1 (≈ 2.31 µM)	1 (≈ 2.31 µM)	1 (≈ 2.31 µM)	1 (≈ 2.31 µM)	1 (≈ 2.31 µM)	1 (≈ 2.31 µM)	1 (≈ 2.31 µM)
CC1(C)S[C@@H]2[C@H](NC(=O)[C@H](N)c3ccc(O)cc3)C(=O)N2[C@H]1C(=O)O [AMOXICILLIN]	32	25	24	21	21	22	–	0.5 (≈ 1.37 µM)	0.5 (≈ 1.37 µM)	0.25 (≈ 0.684 µM)	0.25 (≈ 0.684 µM)	1 (≈ 2.74 µM)	1 (≈ 2.74 µM)	2 (≈ 5.47 µM)	2 (≈ 5.47 µM)	0.5 (≈ 1.37 µM)	0.5 (≈ 1.37 µM)	2 (≈ 5.47 µM)	2 (≈ 5.47 µM)
O=C(O)c1cn(C2CC2)c2cc(N3CCNCC3)c(F)cc2c1=O [CIPROFLOXACIN]	30	28	33	23	26	25	–	0.12 (≈ 0.362 µM)	0.12 (≈ 0.362 µM)	–	–	0.25 (≈ 0.754 µM)	0.25 (≈ 0.754 µM)	–	–	0.12 (≈ 0.362 µM)	0.12 (≈ 0.362 µM)	0.25 (≈ 0.754 µM)	0.25 (≈ 0.754 µM)
NNC(=O)c1ccncc1 [ISONIAZID]	–	–	–	–	–	–	100	–	–	–	–	–	–	–	–	–	–	–	–
CCn1cc(C(=O)O)c(=O)c2ccc(C)nc21 [NALIDIXIC ACID]	27	26	25	22	25	24	63	0.12 (≈ 0.517 µM)	0.12 (≈ 0.517 µM)	0.25 (≈ 1.08 µM)	0.25 (≈ 1.08 µM)	0.25 (≈ 1.08 µM)	0.25 (≈ 1.08 µM)	1 (≈ 4.31 µM)	1 (≈ 4.31 µM)	1 (≈ 4.31 µM)	1 (≈ 4.31 µM)	1 (≈ 4.31 µM)	1 (≈ 4.31 µM)
CO[C@H]1/C=C/O[C@@]2(C)Oc3c(C)c(O)c4c(O)c(c(/C=N/N5CCN(C)CC5)c(O)c4c3C2=O)NC(=O)/C(C)=C\C=C\[C@H](C)[C@H](O)[C@@H](C)[C@@H](O)[C@@H](C)[C@H](OC(C)=O)[C@@H]1C [RIFAMPIN]	–	–	–	–	–	–	98	–	–	–	–	–	–	–	–	–	–	–	–
